Assay results taken from patent publication US12221494B2, “Short synthetic peptides and their uses for treating retinal degenerative diseases and/or tissue injuries” (MacKay Memorial Hospital, priority 2019, dated 2025).
Square brackets hold non-standard residues; d marks the D form. Ends that are not written are not given here.

Legend:
Neuro-2a cells = test: Glutamate-induced Neuro-2a cell death (LDH release); type: cell-based, mouse; settings: glutamate-induced cell death
Experimental: Neuro-2a cells were seeded in 48-well culture plates (1.5×10^5 cells/well) for 24 h, and then cultured in 0.5 ml fresh 2% FBS-DMEM medium containing 20 μM of the present peptide (7 μg of 6-mer in 0.5 ml medium) for further 4 h. Subsequently, 100 mM glutamate (from 1 M stock and PBS as solvent) was added to cells for further 6 h. Glutamate-induced cell death was quantitatively assessed by measuring lactate dehydrogenase (LDH) activity released into the culture medium by damaged cells. LDH activity was measured using PicoProbe™ LDH-Cytotoxicity Fluorometric Assay Kit (Catalog #K314-500; BioVision) according to the instruction manuals. LDH activity was estimated using an automated microplate reader (UVmax; Molecular Devices, San Francisco, CA) by measuring the fluorescent product (Ex/Em=535/587 nm).
Briefly, cells were pretreated with the designated peptide (i.e., any of SEQ ID NOs: 2 to 11) for 4 h and then treated with 100 mM glutamate for 6 h. The cell death was detected by a commercial lactate dehydrogenase (LDH) Cytotoxicity Assay Kit. Results are depicted in FIG. 1.

STAT3 = test: Western blot of STAT3 phosphorylation in C2C12 cells; type: cell-based, mouse; settings: C2C12 myoblast cells, 5 to 20 min after stimulation
Experimental: Cell lysis, fractionation, and SDS-PAGE were conducted in accordance with procedures described previously (Yang Y C et al., BMC Cancer 2007; 7:216). Antibodies used in this study were for Phospho-Stat3 and STAT3 (1:1000-fold dilution). Proteins of interest were detected using the appropriate IgG-HRP secondary antibody (Santa Cruz Biotechnology) and ECL reagent (Amersham Biosciences).

ARPE-19 cells = test: 4-HNE induced apoptosis of ARPE-19 cells (TUNEL staining); type: cell-based, human; settings: 20 μM peptide pretreatment, 25 μM 4-HNE 24 h
Experimental: FIG. 6. The protective effect of the 6-mer dS on ARPE-19 cells against 4-HNE induced apoptosis. Cells were deprived of serum for 24 h and then pretreated with 20 μM 6-mer dS or solvent prior to exposed with 25 μM 4-HNE for additional 24 h. Apoptosis was determined by TUNEL staining (green dots) and counter-stained with Hoechst 33258 (blue dots). (A) Representative graphs from three independent experiments are shown. (B) The percentage of cell death was quantified by dividing the number of TUNEL-positive cells to a population of 2000 counted cells per condition. TUNEL, terminal deoxynucleotidyl transferase-mediated dUTP nick end-labeling. ^aP<0.00003 versus solvent-treated cells. ^bP<0.0006 versus solvent/4-HNE-treated cells.
Reference is made to FIG. 6, which depicts the protective effect of 6-mer dS or 6-mer dE on 4-hydroxy-2-nonenal (4-HNE) induced apoptosis of ARPE-19 cells. 4-hydroxy-2-nonenal (4-HNE) is a product of lipid oxidation, and is also considered as one of the most formidable reactive aldehydes capable of forming adduct with various cellular targets, particularly proteins involve in redox signaling.

Substance | protective effect on Neuro-2a cells (neuroprotective activity), in words (Neuro-2a cells) | STAT3 phosphorylation (immunoblot) (STAT3) | 4-HNE induced apoptosis (TUNEL), in words (ARPE-19 cells)
NH2-(D-Ser)-Leu-Gly-Ala-Glu-COOH (SLGAE; HELM PEPTIDE1{[dS].L.G.A.E}$$$$V2.0; SMILES CC(C)C[C@H](NC(=O)[C@H](N)CO)C(=O)NCC(=O)N[C@@H](C)C(=O)N[C@@H](CCC(=O)O)C(=O)O) [5-mer dS] | lacks any significant neuroprotective activity | possessed no such effect | 
NH2-Ser-Leu-Gly-Ala-Glu-Gln-COOH ([dS]LGAEQ; not fully specified (N-terminus, C-terminus); printed as NH2-Ser-Leu-Gly-Ala-Glu-Gln-COOH) [Peptide 6-mer] |  |  | 6-mer dS being more effective than the 6-mer
